Numbers after ± are expanded uncertainties.
Legend:
[1] = 101.33 kPa, Liquid, Vibrating tube method
[2] = activity coefficient (dimensionless); of the first substance listed, at infinite dilution; xn = mol fraction of the nth substance listed; conditions: Liquid, Chromatography, x1 = 0

CCCCCCn1cc[n+](C)c1.N#C[B-](C#N)(C#N)C#N [1-hexyl-3-methylimidazolium tetracyanoborate]
mass density ([1]; 318.15 K): 976.11 ± 0.23 kg/m3
mass density ([1]; 328.15 K): 969.06 ± 0.23 kg/m3
mass density ([1]; 338.15 K): 962.08 ± 0.23 kg/m3
mass density ([1]; 348.15 K): 955.16 ± 0.23 kg/m3
mass density ([1]; 358.15 K): 948.32 ± 0.23 kg/m3
mass density ([1]; 368.15 K): 941.2 ± 0.23 kg/m3

CCCOCCC [dipropyl ether] + CCCCCCn1cc[n+](C)c1.N#C[B-](C#N)(C#N)C#N
activity coefficient ([2]; 318.15 K): 3.82 ± 0.17
activity coefficient ([2]; 328.15 K): 3.77 ± 0.17
activity coefficient ([2]; 338.15 K): 3.73 ± 0.17
activity coefficient ([2]; 348.15 K): 3.74 ± 0.17
activity coefficient ([2]; 358.15 K): 3.72 ± 0.17
activity coefficient ([2]; 368.15 K): 3.73 ± 0.17

CCO [ethanol] + CCCCCCn1cc[n+](C)c1.N#C[B-](C#N)(C#N)C#N
activity coefficient ([2]; 318.15 K): 1.05 ± 0.03
activity coefficient ([2]; 328.15 K): 0.978 ± 0.025
activity coefficient ([2]; 338.15 K): 0.912 ± 0.026
activity coefficient ([2]; 348.15 K): 0.855 ± 0.027
activity coefficient ([2]; 358.15 K): 0.807 ± 0.028
activity coefficient ([2]; 368.15 K): 0.761 ± 0.029

CCOC(C)=O [ethyl acetate] + CCCCCCn1cc[n+](C)c1.N#C[B-](C#N)(C#N)C#N
activity coefficient ([2]; 318.15 K): 0.664 ± 0.03
activity coefficient ([2]; 328.15 K): 0.684 ± 0.03
activity coefficient ([2]; 338.15 K): 0.701 ± 0.029
activity coefficient ([2]; 348.15 K): 0.715 ± 0.029
activity coefficient ([2]; 358.15 K): 0.733 ± 0.029
activity coefficient ([2]; 368.15 K): 0.751 ± 0.029

CCc1ccccc1 [ethylbenzene] + CCCCCCn1cc[n+](C)c1.N#C[B-](C#N)(C#N)C#N
activity coefficient ([2]; 318.15 K): 1.39 ± 0.05
activity coefficient ([2]; 328.15 K): 1.41 ± 0.05
activity coefficient ([2]; 338.15 K): 1.43 ± 0.05
activity coefficient ([2]; 348.15 K): 1.45 ± 0.05
activity coefficient ([2]; 358.15 K): 1.47 ± 0.06
activity coefficient ([2]; 368.15 K): 1.49 ± 0.06

CCCCCCC [heptane] + CCCCCCn1cc[n+](C)c1.N#C[B-](C#N)(C#N)C#N
activity coefficient ([2]; 318.15 K): 16.5 ± 0.8
activity coefficient ([2]; 328.15 K): 15.4 ± 0.7
activity coefficient ([2]; 338.15 K): 14.5 ± 0.7
activity coefficient ([2]; 348.15 K): 13.7 ± 0.6
activity coefficient ([2]; 358.15 K): 13 ± 0.6
activity coefficient ([2]; 368.15 K): 12.4 ± 0.6

C=CCCCC [hex-1-ene] + CCCCCCn1cc[n+](C)c1.N#C[B-](C#N)(C#N)C#N
activity coefficient ([2]; 318.15 K): 6.13 ± 0.28
activity coefficient ([2]; 328.15 K): 5.88 ± 0.27
activity coefficient ([2]; 338.15 K): 5.71 ± 0.26
activity coefficient ([2]; 348.15 K): 5.58 ± 0.26
activity coefficient ([2]; 358.15 K): 5.44 ± 0.25
activity coefficient ([2]; 368.15 K): 5.35 ± 0.24

CCCCCC [hexane] + CCCCCCn1cc[n+](C)c1.N#C[B-](C#N)(C#N)C#N
activity coefficient ([2]; 318.15 K): 11.8 ± 0.5
activity coefficient ([2]; 328.15 K): 11.2 ± 0.5
activity coefficient ([2]; 338.15 K): 10.6 ± 0.5
activity coefficient ([2]; 348.15 K): 10.2 ± 0.5
activity coefficient ([2]; 358.15 K): 9.79 ± 0.45
activity coefficient ([2]; 368.15 K): 9.53 ± 0.44

CO [methanol] + CCCCCCn1cc[n+](C)c1.N#C[B-](C#N)(C#N)C#N
activity coefficient ([2]; 318.15 K): 0.837 ± 0.027
activity coefficient ([2]; 328.15 K): 0.786 ± 0.028
activity coefficient ([2]; 338.15 K): 0.745 ± 0.029
activity coefficient ([2]; 348.15 K): 0.704 ± 0.029
activity coefficient ([2]; 358.15 K): 0.668 ± 0.03
activity coefficient ([2]; 368.15 K): 0.633 ± 0.031

CCCC(=O)OC [methyl butanoate] + CCCCCCn1cc[n+](C)c1.N#C[B-](C#N)(C#N)C#N
activity coefficient ([2]; 318.15 K): 0.664 ± 0.03
activity coefficient ([2]; 328.15 K): 0.684 ± 0.03
activity coefficient ([2]; 338.15 K): 0.701 ± 0.029
activity coefficient ([2]; 348.15 K): 0.715 ± 0.029
activity coefficient ([2]; 358.15 K): 0.733 ± 0.029
activity coefficient ([2]; 368.15 K): 0.751 ± 0.029

COC(C)=O [methyl ethanoate] + CCCCCCn1cc[n+](C)c1.N#C[B-](C#N)(C#N)C#N
activity coefficient ([2]; 318.15 K): 0.508 ± 0.032
activity coefficient ([2]; 328.15 K): 0.521 ± 0.032
activity coefficient ([2]; 338.15 K): 0.538 ± 0.032
activity coefficient ([2]; 348.15 K): 0.55 ± 0.032
activity coefficient ([2]; 358.15 K): 0.566 ± 0.032
activity coefficient ([2]; 368.15 K): 0.586 ± 0.031

CCC(=O)OC [methyl propanoate] + CCCCCCn1cc[n+](C)c1.N#C[B-](C#N)(C#N)C#N
activity coefficient ([2]; 318.15 K): 0.609 ± 0.031
activity coefficient ([2]; 328.15 K): 0.628 ± 0.031
activity coefficient ([2]; 338.15 K): 0.648 ± 0.03
activity coefficient ([2]; 348.15 K): 0.668 ± 0.03
activity coefficient ([2]; 358.15 K): 0.685 ± 0.03
activity coefficient ([2]; 368.15 K): 0.705 ± 0.029

CC1CCCCC1 [methylcyclohexane] + CCCCCCn1cc[n+](C)c1.N#C[B-](C#N)(C#N)C#N
activity coefficient ([2]; 318.15 K): 8.87 ± 0.41
activity coefficient ([2]; 328.15 K): 8.35 ± 0.38
activity coefficient ([2]; 338.15 K): 7.87 ± 0.36
activity coefficient ([2]; 348.15 K): 7.58 ± 0.35
activity coefficient ([2]; 358.15 K): 7.24 ± 0.33
activity coefficient ([2]; 368.15 K): 7 ± 0.32

CCCCCCCCC [nonane] + CCCCCCn1cc[n+](C)c1.N#C[B-](C#N)(C#N)C#N
activity coefficient ([2]; 318.15 K): 31.4 ± 1.5
activity coefficient ([2]; 328.15 K): 28.8 ± 1.3
activity coefficient ([2]; 338.15 K): 26.6 ± 1.2
activity coefficient ([2]; 348.15 K): 24.9 ± 1.2
activity coefficient ([2]; 358.15 K): 23.2 ± 1.1
activity coefficient ([2]; 368.15 K): 21.9 ± 1

C=CCCCCCC [oct-1-ene] + CCCCCCn1cc[n+](C)c1.N#C[B-](C#N)(C#N)C#N
activity coefficient ([2]; 318.15 K): 11.7 ± 0.5
activity coefficient ([2]; 328.15 K): 11.1 ± 0.5
activity coefficient ([2]; 338.15 K): 10.7 ± 0.5
activity coefficient ([2]; 348.15 K): 10.3 ± 0.5
activity coefficient ([2]; 358.15 K): 9.91 ± 0.46
activity coefficient ([2]; 368.15 K): 9.64 ± 0.44

CCCCCCCC [octane] + CCCCCCn1cc[n+](C)c1.N#C[B-](C#N)(C#N)C#N
activity coefficient ([2]; 318.15 K): 22.8 ± 1.1
activity coefficient ([2]; 328.15 K): 21.1 ± 1
activity coefficient ([2]; 338.15 K): 19.7 ± 0.9
activity coefficient ([2]; 348.15 K): 18.6 ± 0.9
activity coefficient ([2]; 358.15 K): 17.4 ± 0.8
activity coefficient ([2]; 368.15 K): 16.6 ± 0.8

CCCC(C)=O [pentan-2-one] + CCCCCCn1cc[n+](C)c1.N#C[B-](C#N)(C#N)C#N
activity coefficient ([2]; 318.15 K): 0.497 ± 0.033
activity coefficient ([2]; 328.15 K): 0.513 ± 0.032
activity coefficient ([2]; 338.15 K): 0.529 ± 0.032
activity coefficient ([2]; 348.15 K): 0.544 ± 0.032
activity coefficient ([2]; 358.15 K): 0.556 ± 0.032
activity coefficient ([2]; 368.15 K): 0.572 ± 0.031

CCC(=O)CC [pentan-3-one] + CCCCCCn1cc[n+](C)c1.N#C[B-](C#N)(C#N)C#N
activity coefficient ([2]; 318.15 K): 0.478 ± 0.033
activity coefficient ([2]; 328.15 K): 0.498 ± 0.033
activity coefficient ([2]; 338.15 K): 0.518 ± 0.032
activity coefficient ([2]; 348.15 K): 0.536 ± 0.032
activity coefficient ([2]; 358.15 K): 0.551 ± 0.032
activity coefficient ([2]; 368.15 K): 0.569 ± 0.031

CCCCC [pentane] + CCCCCCn1cc[n+](C)c1.N#C[B-](C#N)(C#N)C#N
activity coefficient ([2]; 318.15 K): 8.63 ± 0.4
activity coefficient ([2]; 328.15 K): 8.22 ± 0.38
activity coefficient ([2]; 338.15 K): 7.85 ± 0.36
activity coefficient ([2]; 348.15 K): 7.61 ± 0.35
activity coefficient ([2]; 358.15 K): 7.33 ± 0.34
activity coefficient ([2]; 368.15 K): 7.13 ± 0.33

CCCO [propan-1-ol] + CCCCCCn1cc[n+](C)c1.N#C[B-](C#N)(C#N)C#N
activity coefficient ([2]; 318.15 K): 1.19 ± 0.04
activity coefficient ([2]; 328.15 K): 1.1 ± 0.03
activity coefficient ([2]; 338.15 K): 1.02 ± 0.03
activity coefficient ([2]; 348.15 K): 0.965 ± 0.026
activity coefficient ([2]; 358.15 K): 0.913 ± 0.026
activity coefficient ([2]; 368.15 K): 0.864 ± 0.027

CC(C)O [propan-2-ol] + CCCCCCn1cc[n+](C)c1.N#C[B-](C#N)(C#N)C#N
activity coefficient ([2]; 318.15 K): 1.2 ± 0.04
activity coefficient ([2]; 328.15 K): 1.11 ± 0.03
activity coefficient ([2]; 338.15 K): 1.03 ± 0.03
activity coefficient ([2]; 348.15 K): 0.961 ± 0.026
activity coefficient ([2]; 358.15 K): 0.902 ± 0.026
activity coefficient ([2]; 368.15 K): 0.852 ± 0.027

c1ccncc1 [pyridine] + CCCCCCn1cc[n+](C)c1.N#C[B-](C#N)(C#N)C#N
activity coefficient ([2]; 318.15 K): 0.38 ± 0.034
activity coefficient ([2]; 328.15 K): 0.389 ± 0.034
activity coefficient ([2]; 338.15 K): 0.4 ± 0.034
activity coefficient ([2]; 348.15 K): 0.408 ± 0.034
activity coefficient ([2]; 358.15 K): 0.418 ± 0.034
activity coefficient ([2]; 368.15 K): 0.429 ± 0.034

C=Cc1ccccc1 [styrene] + CCCCCCn1cc[n+](C)c1.N#C[B-](C#N)(C#N)C#N
activity coefficient ([2]; 328.15 K): 0.83 ± 0.03
activity coefficient ([2]; 338.15 K): 0.856 ± 0.027
activity coefficient ([2]; 348.15 K): 0.878 ± 0.027
activity coefficient ([2]; 358.15 K): 0.902 ± 0.026
activity coefficient ([2]; 368.15 K): 0.926 ± 0.026

C1CCOC1 [tetrahydrofuran] + CCCCCCn1cc[n+](C)c1.N#C[B-](C#N)(C#N)C#N
activity coefficient ([2]; 318.15 K): 0.453 ± 0.033
activity coefficient ([2]; 328.15 K): 0.47 ± 0.033
activity coefficient ([2]; 338.15 K): 0.485 ± 0.033
activity coefficient ([2]; 348.15 K): 0.501 ± 0.032
activity coefficient ([2]; 358.15 K): 0.513 ± 0.032
activity coefficient ([2]; 368.15 K): 0.527 ± 0.032

c1ccsc1 [thiophene] + CCCCCCn1cc[n+](C)c1.N#C[B-](C#N)(C#N)C#N
activity coefficient ([2]; 318.15 K): 0.636 ± 0.03
activity coefficient ([2]; 328.15 K): 0.647 ± 0.03
activity coefficient ([2]; 338.15 K): 0.657 ± 0.03
activity coefficient ([2]; 348.15 K): 0.666 ± 0.03
activity coefficient ([2]; 358.15 K): 0.678 ± 0.03
activity coefficient ([2]; 368.15 K): 0.689 ± 0.03

Cc1ccccc1 [toluene] + CCCCCCn1cc[n+](C)c1.N#C[B-](C#N)(C#N)C#N
activity coefficient ([2]; 318.15 K): 0.975 ± 0.025
activity coefficient ([2]; 328.15 K): 0.993 ± 0.025
activity coefficient ([2]; 338.15 K): 1.02 ± 0.03
activity coefficient ([2]; 348.15 K): 1.04 ± 0.03
activity coefficient ([2]; 358.15 K): 1.06 ± 0.03
activity coefficient ([2]; 368.15 K): 1.08 ± 0.03

O [water] + CCCCCCn1cc[n+](C)c1.N#C[B-](C#N)(C#N)C#N
activity coefficient ([2]; 318.15 K): 2.05 ± 0.09
activity coefficient ([2]; 328.15 K): 1.87 ± 0.08
activity coefficient ([2]; 338.15 K): 1.7 ± 0.07
activity coefficient ([2]; 348.15 K): 1.55 ± 0.06
activity coefficient ([2]; 358.15 K): 1.42 ± 0.05
activity coefficient ([2]; 368.15 K): 1.33 ± 0.05
